Laboratory results: patent US8618096B2, “Prodrug compositions and methods for using the same in treating cancer and malaria” (The Regents of the University of California, priority 2008, dated 2013)

Columns and labels:
[1] = test system: 3D7 strain of P. falciparum; experiment: Antimalarial activity, parasite growth in human erythrocytes (YOYO-1 flow cytometry), 3D7 strain; assay type: cell-based; details: Plasmodium falciparum, 3D7, Erythrocyte; 72 hr growth period, eight-point dose-response
Protocol: (§1) Cultures of 3D7 and W2 strains of P. falciparum parasites were grown in purified human erythrocytes and synchronous cultures were placed into 96-well plates containing test compounds. After a 72 hr growth period, cultures were fixed for 1 hr at room temperature in 1% paraformaldehyde and stained with 50 nM YOYO-1 for about 24 hr in the dark. Samples were analyzed on a Becton-Dickinson LSR2 fitted with a microplate reader. Uninfected erythrocytes were used to determine background autofluorescence. Parasite growth in each sample was determined relative to infected erythrocytes without test compound. “Eight-point dose-response curves were generated and EC50 values determined using GRAPHPAD PRISM® software”.

[2] = test system: W2 strain of P. falciparum; experiment: Antimalarial activity, parasite growth in human erythrocytes (YOYO-1 flow cytometry), W2 strain; assay type: cell-based; details: Plasmodium falciparum, W2, Erythrocyte; 72 hr growth period, eight-point dose-response
Protocol: as §1

[3] = Fe(II) activation and drug release in vitro (LC/MS); assay type: physicochemical
Protocol: In a series of experiments, the compound of Example 1 (0.03 mM) was incubated with various amounts (0-100 equivalents) of a ferrous iron salt (ferrous bromide) in a 1:1 solution of acetonitrile and an aqueous buffer at ambient temperature. Either of two buffers were used in these studies: pH 5.5 sodium acetate buffer intended to mimic a lysosomal environment or pH 7.4 phosphate buffered saline. At various time points, a 10 μl sample of the incubation mixture was removed and analyzed by liquid chromatography/mass spectroscopy (LC/MS) to identify the expected products of iron-promoted degradation and drug release. A Waters Alliance/ZQ micromass LC/MS system and a 15 min method employing gradient elution with acetonitrile-water mobile phase (containing 0.1% formic acid) was employed. In the absence of ferrous iron salts, the compound of example 1 was stable for 48 hrs, showing no detectable chemical degradation by LC/MS spectroscopy. In the presence of ferrous bromide however, the compound of example 1 was rapidly (less than 1 hour) converted into the expected ketone (analogous to G, FIG. 2) resulting from iron-promoted degradation of the trioxolane ring. Also observed was a signal attributable to the released drug species, 2,5-dichloroaniline.

[4] = test system: W2 strain P. falciparum parasites; experiment: Evaluation of drug release in cells: food vacuole phenotype in Giemsa-stained blood smears; assay type: cell-based, Plasmodium falciparum; details: 24 hrs, ring stage W2 parasites
Protocol: Cmpd 72 is the prodrug form of a parasite cysteine protease inhibitor, specifically an inhibitor of the proteases falcipain-2 and falcipain-3 from the malaria parasite Plasmodium falciparum. […] Thus, observation of the food vacuole phenotype upon treatment of cultured P. falciparum parasites with the protease inhibitor prodrug would constitute positive evidence for release of the free drug inside the parasite.
Synchronized W2 strain P. falciparum parasites (ring stage) were grown as described herein and incubated in the presence of test and control compounds for 24 hrs. Next, a blood smear was made, fixed with methanol, and stained with Giemsa, as known in the art. Parasites were then imaged at 100× magnification to identify the presence or absence of the food vacuole phenotype.

Q: With `O=C(CCC1(CCOC(=O)Nc2cc(Cl)ccc2Cl)OOC2(O1)C1CC3CC(C1)CC2C3)NCCN1CCOCC1` (stereo not drawn) [Cmpd 40, 2-(5,5-spiroadamantyl-3-(3-(2-morpholinoethylamino)-3-oxopropyl)-1,2,4-trioxolan-3-yl)ethyl-2,5-dichlorophenylcarbamate] as the molecule, how does the EC50 [1] read?
A: Its EC50 is 16 nM.

Q: What about the EC50 [2] of the same molecule?
A: The EC50 was 24 nM.

Q: And the “time of conversion into the expected ketone (iron-promoted degradation of the trioxolane ring)” value ([3]; 0.03 mM, in the presence of ferrous bromide, 1:1 acetonitrile and aqueous buffer, ambient temperature)?
A: Its value is “less than 1 hour”.

Q: What about the “stability in the absence of ferrous iron salts (no detectable chemical degradation by LC/MS)” value ([3]; 48 h, 0.03 mM) of the same molecule?
A: The value was ≥ 48 h.

Q: What about the “release of drug species 2,5-dichloroaniline” value ([3]; in the presence of ferrous bromide, during the course of the experiment, LC/MS) of the same molecule?
A: The value was “the quantity of 2,5-dichloroaniline increased”.

Q: Which results are given for `O=C(CCC1(CCOC(=O)N2CCN(c3ccccc3)CC2)OOC2(O1)C1CC3CC(C1)CC2C3)NCCN1CCOCC1` (stereo not drawn) [Cmpd 45, 2-(5,5-spiroadamantyl-3-(3-(2-morpholinoethylamino)-3-oxopropyl)-1,2,4-trioxolan-3-yl)ethyl 4-phenylpiperazine-1-carboxylate]?
A: EC50 [1]: 9 nM; EC50 [2]: 4.9 nM

Q: Which results are given for `CN(Cc1ccccc1)C(=O)OCCC1(CCC(=O)NCCN2CCOCC2)OOC2(O1)C1CC3CC(C1)CC2C3` (stereo not drawn) [Cmpd 47, 2-(5,5-spiroadamantyl-3-(3-(2-morpholinoethylamino)-3-oxopropyl)-1,2,4-trioxolan-3-yl)ethyl benzyl(methyl)carbamate]?
A: EC50 [1]: 16 nM; EC50 [2]: 15 nM

Q: Which results are given for `O=C(CCC1(CCOC(=O)N(CCCNc2ccnc3cc(Cl)ccc23)Cc2ccco2)OOC2(O1)C1CC3CC(C1)CC2C3)NCCN1CCOCC1` (stereo not drawn) [Cmpd 48, 2-(5,5-spiroadamantyl-3-(3-(2-morpholinoethylamino)-3-oxopropyl)-1,2,4-trioxolan-3-yl)ethyl 3-(7-chloroquinolin-4-ylamino)propyl(furan-2-ylmethyl)carbamate]?
A: EC50 [1]: 38 nM; EC50 [2]: 62 nM

Q: For `O=C(CCC1(CCO)OOC2(O1)C1CC3CC(C1)CC2C3)NCCCN1CCCC1=O` (stereo not drawn) [Cmpd 58, 3-(3-(2-hydroxyethyl)-5,5-spiroadamantyl-1,2,4-trioxolan-3-yl)-N-(3-(2-oxopyrrolidin-1-yl)propyl)propanamide], which “food vacuole phenotype (falcipain inhibition)” value ([4]; 1.1 uM, FIG. 3C-E) is on record?
A: The value was “does not produce the protease-inhibited phenotype”.

Q: With `CC(C)(C[C@H](NC(=O)N1CCOCC1)C(=O)N[C@H](/C=C/S(=O)(=O)c1ccccc1)CCc1ccccc1)OC(=O)OCCC1(CCC(=O)NCCCN2CCCC2=O)OOC2(O1)C1CC3CC(C1)CC2C3` (stereo partly drawn) [Cmpd 72] as the molecule, how does the “food vacuole phenotype (falcipain inhibition)” value ([4]; 1.1 uM, FIG. 3C-E) read?
A: The value was “does produce the falcipain-inhibited phenotype”.

Q: For `CC(C)C[C@H](NC(=O)[C@H]1O[C@@H]1C(=O)O)C(=O)NCCCCN=C(N)N` [E64, reference compound], which “food vacuole phenotype (falcipain inhibition)” value ([4]; 3.3 uM, FIG. 3B) is on record?
A: The value was “swollen, dark-staining food vacuole”.

Q: For `CC(C)(O)C[C@H](NC(=O)N1CCOCC1)C(=O)N[C@H](/C=C/S(=O)(=O)c1ccccc1)CCc1ccccc1` [N—((S)-4-hydroxy-4-methyl-1-oxo-1-((S,E)-5-phenyl-1-(phenylsulfonyl)pent-1-en-3-ylamino)pentan-2-yl)morpholine-4-carboxamide, reference compound], which “food vacuole phenotype (falcipain inhibition)” value ([4]; 1.1 uM, FIG. 3C-E) is on record?
A: The value was “swollen, dark-staining food vacuole”.
